Tests used:
BKCa channel [1] = biological target: BKCa channel (Homo sapiens, UniProt Q12791); experiment: Single‐channel inside‐out patch clamp, HCN‐2 neural cells; format: cell-based; conditions: inside‐out patches
Method: The human EA.hy926 endothelial cells (ATCC, Manassas, USA) were grown in DMEM containing 10% FCS and 1% HAT (5 mM hypoxanthine, 20 μM aminopterin and 0.8 mM thymidine) and were maintained in an incubator at 37°C in 5% CO2 atmosphere (Bondarenko et al., 2013). Human HNC‐2 neuronal cells were obtained from ATCC. For experiments, cells were plated on glass coverslips. Single‐channel recordings were obtained from excised inside‐out membrane patches in symmetrical solutions using the patch‐clamp technique. All patch‐clamp experiments were performed at room temperature with the use of a water hydraulic micromanipulator (WR‐6, Narishige, Japan). […] The pipettes were filled with 140 mM KCl, 10 mM HEPES, 1 mM MgCl2, 5 mM EGTA and […] CaCl2 buffered to pH 7.2 by adding KOH. Cells were super‐perfused with a bath solution containing 140 mM NaCl, 5 mM KCl, 1.2 mM MgCl2, 10 mM HEPES, 10 mM glucose and 2.4 mM CaCl2. […] Single‐channel activity was expressed as NPo, where N represents the number of functional ion channels in the membrane patch and Po represents the open channel probability determined from idealized traces (Bondarenko et al., 2011). […] Data were analysed by ANOVA, and statistical significance was evaluated using Scheffés post hoc test of the Prism 5 software for Windows (GraphPad Software).

rats [2] = experiment: Irwin test; format: in vivo, rat
GPR35 = biological target: T1, GPR35 (Homo sapiens, UniProt Q9HC97); experiment: Receptor binding profile of VSN16R; conditions: 10µM VSN16R
T1 construct: purchased Cerep; Chantest; DiscoveRx; Multispan; MDS Pharma Services
T1 sequence (Q9HC97 whole entry): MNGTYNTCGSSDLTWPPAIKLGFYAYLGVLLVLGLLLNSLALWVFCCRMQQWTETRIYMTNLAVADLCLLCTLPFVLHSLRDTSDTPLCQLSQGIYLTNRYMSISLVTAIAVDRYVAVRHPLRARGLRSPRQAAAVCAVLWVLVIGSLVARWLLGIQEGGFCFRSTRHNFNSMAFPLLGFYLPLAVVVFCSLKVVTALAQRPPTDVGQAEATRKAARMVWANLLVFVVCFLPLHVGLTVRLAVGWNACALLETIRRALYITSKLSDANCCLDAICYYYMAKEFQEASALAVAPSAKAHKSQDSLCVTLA

rats [3] = experiment: 28 day toxicology in rats (100, 300, 1000mg/kg p.o.); format: in vivo, rat
Method: Twenty‐eight day toxicology in rats and dogs for Investigational New Drug filing was performed by Charles Rivers (UK). Reproductive toxicology in rabbits was performed by Charles Rivers (Canada). Pharmacokinetic and/or toxicological doses ranged from 5 to 1000 mg·kg^−1 p.o. in Sprague Dawley male and female rats (n = 6‐26 per group), 50–200 mg·kg^−1 p.o. in male and female Beagle dogs (n = 6 per group) and 100–750 mg·kg^−1 p.o. in female New Zealand white rabbits (n = 9 per group). Results are expressed as mean ± SD.
Tissue Analysed Result of Tissue Analysis in Rats Result of Tissue Analysis in Dogs Artery, Aorta Negative Negative
Bone Marrow femur Negative Negative
Bone Marrow sternum Negative Negative
Bone, Sternum Negative Negative
Epididymus Negative Negative
Adrenal Gland Negative Negative
Mammary Grand Negative Negative
Parathyroid Gland Negative Negative
Pituitary Gland Negative Negative
Prostate Gland Negative Negative
Salivary Gland Negative Negative
Seminal Vesicle Gland Negative Negative
Gut associated lymphoid Negative Negative
Large Intestine caecum Negative Negative
Large Intestine colon Negative Negative
Large Intestine rectum Negative Negative
Mandibular Lymph Node Negative Negative
Mesenteric Lymph Node Negative Negative
Skeletal Muscle Negative Negative
Nasal Cavity Negative Negative
Sciatic Nerve Negative Negative
Oesophagus Negative Negative
Pancreas Negative Negative
Small Intestine, duodenum Negative Negative
Small Intestine, Ileum Negative Negative […]
Following 28 day toxicology of feeding either: rats treated with 100mg/kg, 300mg/kg, 1000mg/kg p.o. (n-20/group) or dogs treated with 50mg/kg, 100mg/kg or 200mg/kg p.o. (n=6/group). […] Studies were performed by Charles Rivers, Ltd. However, * There was hypertrophy of the liver that was evident at high doses VSN16R was associated with liver weight (mean ± SD) increases: 11.0 ± 1.2g placebo, 11.6 ± 1.3g (300mg/kg p.o.), 16.7 ± 2.1g (1000mg/kg p.o. P<0.001 assessed using Students t test. n= 10 female rats/group) associated with liver enzyme induction, supporting enhanced VSN16R clearance in pharmacokinetic studies. […]

BKCa channel [4] = biological target: T2, BKCa channel (Homo sapiens, UniProt Q12791+Q86W47); experiment: Single‐channel inside‐out patch clamp, EA.hy926 cells; format: cell-based; conditions: 3 μM, inner surface of membrane, 40 mV, 0.3 μM free Ca^2+
T2 construct: host or cells: EA.hy926 endothelial cells
T2 sequence (Q12791 whole entry): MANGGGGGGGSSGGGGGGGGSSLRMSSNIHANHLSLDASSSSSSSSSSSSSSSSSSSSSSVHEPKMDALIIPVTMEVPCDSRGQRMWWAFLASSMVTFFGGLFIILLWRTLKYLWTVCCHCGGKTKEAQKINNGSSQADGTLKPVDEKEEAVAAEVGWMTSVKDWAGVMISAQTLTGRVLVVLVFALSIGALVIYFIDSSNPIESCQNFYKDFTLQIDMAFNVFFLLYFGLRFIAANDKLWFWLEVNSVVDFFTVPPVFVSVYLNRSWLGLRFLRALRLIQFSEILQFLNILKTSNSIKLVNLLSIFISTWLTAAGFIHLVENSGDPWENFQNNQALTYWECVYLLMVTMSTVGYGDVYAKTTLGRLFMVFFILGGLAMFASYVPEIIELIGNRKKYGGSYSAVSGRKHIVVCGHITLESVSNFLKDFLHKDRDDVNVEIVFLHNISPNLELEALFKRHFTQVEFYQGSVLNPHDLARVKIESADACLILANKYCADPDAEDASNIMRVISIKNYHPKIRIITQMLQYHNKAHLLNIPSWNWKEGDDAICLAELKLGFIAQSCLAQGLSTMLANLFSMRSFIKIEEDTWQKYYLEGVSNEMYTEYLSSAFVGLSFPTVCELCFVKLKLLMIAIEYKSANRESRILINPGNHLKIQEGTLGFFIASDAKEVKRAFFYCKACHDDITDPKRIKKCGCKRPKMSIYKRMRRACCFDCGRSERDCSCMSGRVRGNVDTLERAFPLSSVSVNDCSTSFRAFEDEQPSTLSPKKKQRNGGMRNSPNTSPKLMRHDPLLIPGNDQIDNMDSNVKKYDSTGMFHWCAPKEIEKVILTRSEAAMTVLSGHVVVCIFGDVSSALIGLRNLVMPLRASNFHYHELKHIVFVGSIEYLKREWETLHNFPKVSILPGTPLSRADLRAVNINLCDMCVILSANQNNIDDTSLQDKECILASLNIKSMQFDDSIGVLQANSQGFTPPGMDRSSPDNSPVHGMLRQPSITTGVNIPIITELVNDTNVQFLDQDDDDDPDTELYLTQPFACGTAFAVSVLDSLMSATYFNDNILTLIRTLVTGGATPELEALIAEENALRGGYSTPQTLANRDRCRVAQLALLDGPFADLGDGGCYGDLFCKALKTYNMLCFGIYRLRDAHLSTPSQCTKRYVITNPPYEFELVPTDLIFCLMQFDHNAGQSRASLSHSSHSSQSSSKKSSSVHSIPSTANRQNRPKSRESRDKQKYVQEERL
T2 sequence (Q86W47 whole entry): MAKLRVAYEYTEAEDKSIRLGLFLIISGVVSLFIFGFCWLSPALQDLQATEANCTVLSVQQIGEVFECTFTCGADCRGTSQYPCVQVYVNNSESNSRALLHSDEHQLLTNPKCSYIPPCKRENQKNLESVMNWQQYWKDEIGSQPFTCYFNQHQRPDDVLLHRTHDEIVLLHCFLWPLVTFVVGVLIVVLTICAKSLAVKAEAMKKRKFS
Method: The human EA.hy926 endothelial cells (ATCC, Manassas, USA) were grown in DMEM containing 10% FCS and 1% HAT (5 mM hypoxanthine, 20 μM aminopterin and 0.8 mM thymidine) and were maintained in an incubator at 37°C in 5% CO2 atmosphere (Bondarenko et al., 2013). Human HNC‐2 neuronal cells were obtained from ATCC. For experiments, cells were plated on glass coverslips. Single‐channel recordings were obtained from excised inside‐out membrane patches in symmetrical solutions using the patch‐clamp technique. All patch‐clamp experiments were performed at room temperature with the use of a water hydraulic micromanipulator (WR‐6, Narishige, Japan). […] The pipettes were filled with 140 mM KCl, 10 mM HEPES, 1 mM MgCl2, 5 mM EGTA and […] CaCl2 buffered to pH 7.2 by adding KOH. Cells were super‐perfused with a bath solution containing 140 mM NaCl, 5 mM KCl, 1.2 mM MgCl2, 10 mM HEPES, 10 mM glucose and 2.4 mM CaCl2. Following gigaseal formation, bath solution was switched to the following: 140 mM KCl, 10 mM HEPES, 1 mM MgCl2, 5 mM EGTA and a designated free Ca^2+ concentration, which was adjusted by adding different amounts of CaCl2 buffered to pH 7.2. (Bondarenko et al., 2011; Bondarenko et al., 2013). Single‐channel activity was expressed as NPo, where N represents the number of functional ion channels in the membrane patch and Po represents the open channel probability determined from idealized traces (Bondarenko et al., 2011). NPo was obtained from ≥20 s of continuous recording under each experimental condition. The effect of VSN16R was estimated after 3 min of continuous exposure to VSN16R‐containing solution. Data were analysed by ANOVA, and statistical significance was evaluated using Scheffés post hoc test of the Prism 5 software for Windows (GraphPad Software).

CCKA = biological target: T3, CCKA (Homo sapiens, UniProt P32238); experiment: Receptor binding profile of VSN16R; conditions: 10µM VSN16R
T3 construct: purchased Cerep; Chantest; DiscoveRx; Multispan; MDS Pharma Services
T3 sequence (P32238 whole entry): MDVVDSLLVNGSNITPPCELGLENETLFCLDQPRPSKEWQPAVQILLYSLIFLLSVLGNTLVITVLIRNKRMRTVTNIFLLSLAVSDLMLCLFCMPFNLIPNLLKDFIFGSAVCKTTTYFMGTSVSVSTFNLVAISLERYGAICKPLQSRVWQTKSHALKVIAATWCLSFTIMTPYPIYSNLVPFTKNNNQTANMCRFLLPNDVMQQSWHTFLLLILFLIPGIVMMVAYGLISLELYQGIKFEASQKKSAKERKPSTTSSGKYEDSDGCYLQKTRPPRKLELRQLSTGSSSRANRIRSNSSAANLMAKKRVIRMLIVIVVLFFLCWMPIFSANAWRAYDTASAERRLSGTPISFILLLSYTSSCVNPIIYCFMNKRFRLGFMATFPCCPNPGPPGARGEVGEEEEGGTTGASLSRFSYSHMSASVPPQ

[5] = biological target: CYP450 1A2 (Homo sapiens)
Chain of CYP450 1A2 (Homo sapiens) (P11511 whole entry): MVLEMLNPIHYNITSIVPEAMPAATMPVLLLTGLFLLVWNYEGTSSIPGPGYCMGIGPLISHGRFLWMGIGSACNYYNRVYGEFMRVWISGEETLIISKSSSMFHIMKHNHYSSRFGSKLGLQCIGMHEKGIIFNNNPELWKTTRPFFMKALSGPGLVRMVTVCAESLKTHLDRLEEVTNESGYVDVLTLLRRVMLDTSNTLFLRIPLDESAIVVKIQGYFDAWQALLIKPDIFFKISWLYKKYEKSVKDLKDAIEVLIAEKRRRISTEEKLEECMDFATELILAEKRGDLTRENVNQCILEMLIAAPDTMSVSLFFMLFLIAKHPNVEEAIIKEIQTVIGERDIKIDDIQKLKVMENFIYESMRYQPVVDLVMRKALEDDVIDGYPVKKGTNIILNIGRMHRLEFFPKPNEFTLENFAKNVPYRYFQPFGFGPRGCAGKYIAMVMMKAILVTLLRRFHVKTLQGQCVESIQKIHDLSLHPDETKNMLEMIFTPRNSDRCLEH
Text: IC50 Inhibition of substrate binding
Inhibition of binding of either 3-cyano-7-ethoxycoumarin, dibenzylfluorescein or 7-benzyoxy-4-
(trifluoromethyl) coumarin in human enzyme transfected BTI NN-5B1-4 cells or Sf9 insect cells or
inhibition of dextromethorphan substrate to CYP450 2D6 in liver microsomes.

[6] = biological target: T4, hCB2 Receptor (HEK293T.CNR2) (Homo sapiens, UniProt P34972); experiment: cAMP assay, HEK293T.CNR2; format: cell-based; conditions: max. tested 10μM
T4 construct: expressed in transfected cells; host or cells: HEK293T
T4 sequence (P34972 whole entry): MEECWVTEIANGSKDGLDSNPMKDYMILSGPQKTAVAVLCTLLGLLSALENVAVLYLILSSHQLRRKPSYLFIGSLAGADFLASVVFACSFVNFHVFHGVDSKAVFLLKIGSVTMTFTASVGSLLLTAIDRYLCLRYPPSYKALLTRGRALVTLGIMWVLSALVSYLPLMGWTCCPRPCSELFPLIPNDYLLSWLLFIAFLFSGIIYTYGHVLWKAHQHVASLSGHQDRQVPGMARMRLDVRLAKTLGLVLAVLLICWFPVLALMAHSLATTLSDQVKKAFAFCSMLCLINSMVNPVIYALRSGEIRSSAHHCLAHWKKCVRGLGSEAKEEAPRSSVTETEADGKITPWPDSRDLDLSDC

[7] = biological target: T5, hCB2 Receptor (CHO-K1.CNR2) (Homo sapiens, UniProt P34972); experiment: GTPγS Binding assay, CHO-K1.CNR2; format: biochemical; conditions: max. tested 10μM
T5 construct: expressed in transfected cells; host or cells: CHO-K1
T5 sequence (P34972 whole entry): as above

[8] = test system: spastic ABH mice with EAE; experiment: Hoffman (H) reflex electrophysiology in spastic animals; format: in vivo, mouse; conditions: 30mg/kg i.v.
M3 = biological target: T6, M3 (Homo sapiens, UniProt P20309); experiment: Receptor binding profile of VSN16R; conditions: 10µM VSN16R
T6 construct: purchased Cerep; Chantest; DiscoveRx; Multispan; MDS Pharma Services
T6 sequence (P20309 whole entry): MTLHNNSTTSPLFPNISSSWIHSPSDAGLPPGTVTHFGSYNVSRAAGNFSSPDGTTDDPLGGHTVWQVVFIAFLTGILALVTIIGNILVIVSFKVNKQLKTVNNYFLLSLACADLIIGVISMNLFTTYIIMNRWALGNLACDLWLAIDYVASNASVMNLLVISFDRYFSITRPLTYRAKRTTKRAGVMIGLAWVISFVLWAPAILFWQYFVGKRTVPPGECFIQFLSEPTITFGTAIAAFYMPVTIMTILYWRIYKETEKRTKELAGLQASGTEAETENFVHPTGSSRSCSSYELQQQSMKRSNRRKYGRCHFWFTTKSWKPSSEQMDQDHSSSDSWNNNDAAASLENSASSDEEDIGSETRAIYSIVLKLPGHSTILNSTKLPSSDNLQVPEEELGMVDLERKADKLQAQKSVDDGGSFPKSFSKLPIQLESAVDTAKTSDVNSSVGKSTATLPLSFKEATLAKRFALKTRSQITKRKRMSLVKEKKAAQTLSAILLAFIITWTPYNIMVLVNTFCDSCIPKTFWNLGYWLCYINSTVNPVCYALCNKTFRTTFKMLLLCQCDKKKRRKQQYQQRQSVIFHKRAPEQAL

TrK B = biological target: T7, TrK B (Homo sapiens, UniProt Q16620); experiment: Receptor binding profile of VSN16R; conditions: 10µM VSN16R
T7 construct: purchased Cerep; Chantest; DiscoveRx; Multispan; MDS Pharma Services
T7 sequence (Q16620 32-822): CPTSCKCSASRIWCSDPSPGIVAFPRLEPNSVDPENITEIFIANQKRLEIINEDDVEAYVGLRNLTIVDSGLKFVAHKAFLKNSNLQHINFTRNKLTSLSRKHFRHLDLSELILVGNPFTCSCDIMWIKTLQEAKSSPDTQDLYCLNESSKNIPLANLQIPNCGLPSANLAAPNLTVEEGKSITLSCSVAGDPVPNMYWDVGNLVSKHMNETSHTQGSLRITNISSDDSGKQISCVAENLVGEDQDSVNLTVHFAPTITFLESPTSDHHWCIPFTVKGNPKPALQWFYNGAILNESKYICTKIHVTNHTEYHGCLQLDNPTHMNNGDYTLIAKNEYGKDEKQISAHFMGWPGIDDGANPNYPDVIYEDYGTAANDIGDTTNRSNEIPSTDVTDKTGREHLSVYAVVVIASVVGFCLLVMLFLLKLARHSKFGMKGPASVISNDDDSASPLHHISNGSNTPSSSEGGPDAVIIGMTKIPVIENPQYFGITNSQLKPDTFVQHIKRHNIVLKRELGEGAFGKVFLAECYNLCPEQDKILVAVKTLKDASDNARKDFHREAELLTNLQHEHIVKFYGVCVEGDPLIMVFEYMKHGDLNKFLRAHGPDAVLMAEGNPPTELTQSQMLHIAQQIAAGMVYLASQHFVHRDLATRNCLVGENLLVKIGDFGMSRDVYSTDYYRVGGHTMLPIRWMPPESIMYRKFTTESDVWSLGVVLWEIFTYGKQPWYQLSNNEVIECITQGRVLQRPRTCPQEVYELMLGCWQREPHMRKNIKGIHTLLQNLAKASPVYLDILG

mouse Gpr55 = biological target: T8, mouse Gpr55 (Mus musculus, UniProt Q3UJF0); experiment: Nuclear CREB expression, DBT cells transfected with mouse Gpr55; format: cell-based; conditions: 10 μM
T8 construct: expressed in transfected cells; host or cells: DBT cells
T8 sequence (Q3UJF0 whole entry): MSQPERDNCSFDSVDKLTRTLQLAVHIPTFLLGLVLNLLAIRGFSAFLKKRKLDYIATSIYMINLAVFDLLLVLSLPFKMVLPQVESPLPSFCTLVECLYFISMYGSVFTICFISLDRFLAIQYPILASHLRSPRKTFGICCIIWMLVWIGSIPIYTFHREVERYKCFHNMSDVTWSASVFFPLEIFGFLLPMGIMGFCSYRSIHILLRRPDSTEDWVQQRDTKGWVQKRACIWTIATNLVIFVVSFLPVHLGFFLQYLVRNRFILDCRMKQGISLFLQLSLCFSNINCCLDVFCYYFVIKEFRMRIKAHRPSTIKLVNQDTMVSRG

Chain of BKCa channel (Homo sapiens, UniProt Q12791) (Q12791 whole entry): as the sequence (Q12791 whole entry) above

Structure (SMILES): C[C@H](CO)NC(=O)c1cccc(/C=C\CCCC(=O)N(C)C)c1 [VSN16R]
- Single BKCa channel activity (BKCa channel [1]): stimulated single BKCa channel activity
- Irwin test: Autonomic profile (rats [2]; 120mg/kg p.o. in water): Unchanged
- Irwin test: Behavioural Profile (rats [2]; 120mg/kg p.o. in water): Unchanged
- Irwin test: Neurological profile (rats [2]; 120mg/kg p.o. in water): Unchanged
- Adverse behavioural responses in Irwin tests (rats [2]; 120 mg·kg^−1 p.o.): did not display any adverse behavioural responses
- Activity (GPR35): Negligible Activity
- Histological analysis of animal tissues (rats [3]; both, Sprague Dawley (rat), rat, in vivo, 28 days): essentially no significant microscopic findings attributable to VSN16R
- NOEL (rats [3]; p.o., rats over 28 days): 1000 mg/kg
- Clinical signs (rats [3]; rat, in vivo): occasional salivation and ‘ploughing’ behaviours
- Single BKCa channel activity (BKCa channel [4]): facilitated single BKCa channel activity
- Activity (CCKA): Negligible Activity
- IC50 [5]: > 10 µM
- Activity of VSN16R (Max. Tested) [6]: No Activity
- Activity of VSN16R (Max. Tested) [7]: No Activity
- Animals with H reflex inhibited [8]: 3/5
- Activity (M3): Negligible Activity
- Activity (TrK B): Negligible Activity
- Activity on DBT cells transfected with mouse Gpr55 (mouse Gpr55): Lack of activity
